In patent US20260207585A1, “METHODS AND COMPOSITIONS FOR THE TREATMENT OF PARKINSON'S DISEASE, HUNTINGTON'S DISEASE, AMYOTROPHIC LATERAL SCLEROSIS, AND LEARNING DISORDERS” (Cedars-Sinai Medical Center, priority 2022, published 2026):
Where two headings read alike, the source gives them in different places.

What was measured:
PRMT5/MEP50 Complex = PRMT5/MEP50 Complex (Homo sapiens, UniProt O14744); assay: Methyltransferase inhibition panel: PRMT5/MEP50 Complex; type: biochemical
Protocol: (§1) The ability of ETP69 to inhibit methyltransferases was tested.

Delivery to the brain = conditions: in vivo
[1] = system: wildtype and AD model (APP/PS1-transgenic) mice; assay: Y-Maze test; type: in vivo
Protocol: The effects of single and repeated ETP69 injections in mice were tested. The experimental timeline is depicted in FIG. 5. Three parallel injection conditions were tested: a single ETP69 condition, a boosted ETP69 injection, and repeated ETP69 injections. The single injection mice received one injection of ETP69 or DMSO at Day 0. The mice that received a boosted injection received one injection of ETP69 or DMSO at day 0 and one injection at day 9. The mice that received repeated injections received 11 injections of ETP69 or DMSO at day 0 or day 9. Both wildtype and AD model (APP/PS1-transgenic) mice were tested.
Treatment with ETP69 restored CNS-related locomotor, visual, cognitive functions (FIGS. 6A-611). First, the effects of ETP69 on cognitive and visual protection was tested using the Y-Maze test.

DOT1L = DOT1L (Homo sapiens, UniProt Q8TEK3); assay: Methyltransferase inhibition panel: DOT1L; type: biochemical
Protocol: as §1

NSD2 (E1099K) = molecular target: T1, NSD2 (E1099K) (Homo sapiens, UniProt O96028, E1099K); assay: Methyltransferase inhibition panel: NSD2 (E1099K); type: biochemical
T1 sequence (O96028 1-1365 E1099K): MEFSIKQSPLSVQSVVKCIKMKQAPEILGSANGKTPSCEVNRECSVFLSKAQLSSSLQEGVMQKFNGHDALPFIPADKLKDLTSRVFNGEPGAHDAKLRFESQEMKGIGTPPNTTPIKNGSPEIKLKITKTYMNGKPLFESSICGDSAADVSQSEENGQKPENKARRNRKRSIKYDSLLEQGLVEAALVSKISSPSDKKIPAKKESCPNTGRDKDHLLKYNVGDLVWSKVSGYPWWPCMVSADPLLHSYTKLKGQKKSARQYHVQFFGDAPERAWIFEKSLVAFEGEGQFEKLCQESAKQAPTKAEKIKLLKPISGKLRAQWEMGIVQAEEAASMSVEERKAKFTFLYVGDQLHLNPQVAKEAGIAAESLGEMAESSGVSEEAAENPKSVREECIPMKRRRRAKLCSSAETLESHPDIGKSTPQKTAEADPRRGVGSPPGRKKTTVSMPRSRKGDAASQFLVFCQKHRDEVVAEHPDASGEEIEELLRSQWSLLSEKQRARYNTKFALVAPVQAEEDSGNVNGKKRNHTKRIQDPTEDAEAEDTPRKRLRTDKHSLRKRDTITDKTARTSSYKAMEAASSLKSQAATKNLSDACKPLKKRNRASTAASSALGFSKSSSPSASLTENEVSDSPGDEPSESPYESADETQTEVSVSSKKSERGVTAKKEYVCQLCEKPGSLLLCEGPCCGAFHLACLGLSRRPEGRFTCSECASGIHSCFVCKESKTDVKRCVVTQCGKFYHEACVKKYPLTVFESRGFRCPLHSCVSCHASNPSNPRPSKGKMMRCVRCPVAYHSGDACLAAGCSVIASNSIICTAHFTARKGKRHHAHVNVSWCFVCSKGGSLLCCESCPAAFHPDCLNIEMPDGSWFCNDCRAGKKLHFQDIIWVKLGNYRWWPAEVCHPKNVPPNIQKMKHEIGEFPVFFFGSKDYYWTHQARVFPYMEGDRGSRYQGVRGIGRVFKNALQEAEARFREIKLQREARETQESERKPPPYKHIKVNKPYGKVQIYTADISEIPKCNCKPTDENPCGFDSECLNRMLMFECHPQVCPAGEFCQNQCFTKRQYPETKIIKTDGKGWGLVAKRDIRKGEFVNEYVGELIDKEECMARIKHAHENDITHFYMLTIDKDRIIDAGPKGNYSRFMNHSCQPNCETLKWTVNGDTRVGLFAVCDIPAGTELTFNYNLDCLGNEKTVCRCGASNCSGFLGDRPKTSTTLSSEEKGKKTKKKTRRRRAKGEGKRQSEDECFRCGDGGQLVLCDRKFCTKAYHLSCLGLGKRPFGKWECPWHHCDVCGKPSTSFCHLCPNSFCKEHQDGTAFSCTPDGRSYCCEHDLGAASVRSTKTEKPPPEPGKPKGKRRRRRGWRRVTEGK
Protocol: as §1

[2] = read-out: Enzyme % Activity (relative to DMSO controls) Data 1
[3] = read-out: Enzyme % Activity (relative to DMSO controls) Data 2

Chain of PRMT5/MEP50 Complex (O14744 whole entry): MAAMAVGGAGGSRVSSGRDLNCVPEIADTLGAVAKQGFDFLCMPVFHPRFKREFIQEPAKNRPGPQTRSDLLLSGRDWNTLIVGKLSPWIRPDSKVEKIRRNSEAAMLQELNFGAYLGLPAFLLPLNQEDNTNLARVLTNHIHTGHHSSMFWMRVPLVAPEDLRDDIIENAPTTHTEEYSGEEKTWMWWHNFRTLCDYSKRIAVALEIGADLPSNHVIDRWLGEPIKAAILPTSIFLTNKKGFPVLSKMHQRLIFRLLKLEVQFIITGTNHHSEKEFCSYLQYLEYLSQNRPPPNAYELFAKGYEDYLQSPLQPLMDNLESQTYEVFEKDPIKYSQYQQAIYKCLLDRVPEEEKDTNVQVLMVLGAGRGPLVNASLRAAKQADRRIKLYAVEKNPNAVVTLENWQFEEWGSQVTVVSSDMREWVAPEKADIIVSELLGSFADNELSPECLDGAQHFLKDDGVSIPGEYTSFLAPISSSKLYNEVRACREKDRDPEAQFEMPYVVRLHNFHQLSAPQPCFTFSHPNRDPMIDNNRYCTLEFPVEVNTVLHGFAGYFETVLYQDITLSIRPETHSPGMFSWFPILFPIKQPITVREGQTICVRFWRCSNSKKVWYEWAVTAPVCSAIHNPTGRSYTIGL
Chain of PRMT5/MEP50 Complex (Q9BQA1 whole entry partner): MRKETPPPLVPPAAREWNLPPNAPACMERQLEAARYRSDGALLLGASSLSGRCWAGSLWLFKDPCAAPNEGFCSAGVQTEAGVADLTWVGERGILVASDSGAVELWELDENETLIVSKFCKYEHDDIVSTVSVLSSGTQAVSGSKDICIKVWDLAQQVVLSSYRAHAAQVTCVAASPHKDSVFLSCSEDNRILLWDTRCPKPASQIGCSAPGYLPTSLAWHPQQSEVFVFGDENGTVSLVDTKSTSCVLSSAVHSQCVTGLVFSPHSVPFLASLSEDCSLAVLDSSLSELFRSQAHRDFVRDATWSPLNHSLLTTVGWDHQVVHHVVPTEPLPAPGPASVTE
Chain of DOT1L (Q8TEK3 whole entry): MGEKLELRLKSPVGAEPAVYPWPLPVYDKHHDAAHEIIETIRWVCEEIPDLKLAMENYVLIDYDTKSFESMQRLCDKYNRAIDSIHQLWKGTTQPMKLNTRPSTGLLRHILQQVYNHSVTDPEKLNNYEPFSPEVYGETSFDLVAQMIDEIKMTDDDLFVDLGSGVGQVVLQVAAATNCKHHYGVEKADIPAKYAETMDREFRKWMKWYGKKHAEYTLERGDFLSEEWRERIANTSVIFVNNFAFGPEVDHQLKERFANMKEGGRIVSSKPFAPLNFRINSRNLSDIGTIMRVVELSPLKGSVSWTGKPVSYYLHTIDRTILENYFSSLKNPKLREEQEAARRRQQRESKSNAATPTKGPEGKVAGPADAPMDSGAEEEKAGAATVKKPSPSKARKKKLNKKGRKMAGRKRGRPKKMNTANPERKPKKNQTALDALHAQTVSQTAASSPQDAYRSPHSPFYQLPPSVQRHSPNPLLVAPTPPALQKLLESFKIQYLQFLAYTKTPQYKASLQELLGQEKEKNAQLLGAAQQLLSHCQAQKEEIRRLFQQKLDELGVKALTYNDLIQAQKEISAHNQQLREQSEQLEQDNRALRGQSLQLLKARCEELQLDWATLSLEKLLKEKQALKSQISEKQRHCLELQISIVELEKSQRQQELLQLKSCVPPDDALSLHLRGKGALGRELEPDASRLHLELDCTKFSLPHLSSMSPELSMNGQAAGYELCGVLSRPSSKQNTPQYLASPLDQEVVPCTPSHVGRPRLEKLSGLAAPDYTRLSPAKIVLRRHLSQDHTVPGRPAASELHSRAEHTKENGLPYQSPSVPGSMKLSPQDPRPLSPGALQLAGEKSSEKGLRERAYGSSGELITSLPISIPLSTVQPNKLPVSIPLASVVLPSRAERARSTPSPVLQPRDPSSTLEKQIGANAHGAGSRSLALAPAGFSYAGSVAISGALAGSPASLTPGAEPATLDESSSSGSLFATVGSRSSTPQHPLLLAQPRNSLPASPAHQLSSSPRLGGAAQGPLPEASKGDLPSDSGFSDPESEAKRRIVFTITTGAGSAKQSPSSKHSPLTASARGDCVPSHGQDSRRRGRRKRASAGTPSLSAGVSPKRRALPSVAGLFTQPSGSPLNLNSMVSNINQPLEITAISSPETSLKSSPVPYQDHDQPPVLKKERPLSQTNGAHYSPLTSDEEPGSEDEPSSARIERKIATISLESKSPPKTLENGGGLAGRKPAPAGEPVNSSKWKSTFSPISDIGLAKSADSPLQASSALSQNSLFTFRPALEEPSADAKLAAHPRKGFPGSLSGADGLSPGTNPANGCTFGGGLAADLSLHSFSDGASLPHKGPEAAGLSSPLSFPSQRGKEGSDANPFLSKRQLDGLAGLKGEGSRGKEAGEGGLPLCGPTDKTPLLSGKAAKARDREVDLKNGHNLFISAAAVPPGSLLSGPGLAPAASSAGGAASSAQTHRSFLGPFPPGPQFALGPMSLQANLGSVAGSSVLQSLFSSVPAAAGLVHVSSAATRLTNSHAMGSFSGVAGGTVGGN

CN1C(=O)[C@@]23C[C@](C)(C#N)[C@H](c4ccc5c(c4)OCO5)N2C(=O)[C@]1(C)SS3 (racemic) [ETP69, Rac-(3S,6S,7S,8aS)-6-(benzo[d][1,3]dioxol-5-yl)-2,3,7-trimethyl-1,4-dioxohexahydro-6H-3,8a-epidithiopyrrolo[1,2-a]pyrazine-7-carbonitrile]
remaining activity at 20 µM (PRMT5/MEP50 Complex; [2]): 92.2%
remaining activity at 20 µM (PRMT5/MEP50 Complex; [3]): 93.1%
delivery to the brain (Delivery to the brain): good delivery to the brain
percent alternation ([1]; AD+ mice vs AD+ DMSO): significant increase
number of total entries (locomotor activity) ([1]; wildtype and AD+ mice): decreased
remaining activity at 20 µM (DOT1L; [2]): 104%
remaining activity at 20 µM (DOT1L; [3]): 98.5%
remaining activity at 20 µM (NSD2 (E1099K); [2]): 32.3%
remaining activity at 20 µM (NSD2 (E1099K); [3]): 32.7%
inhibition relative to DMSO controls (NSD2 (E1099K); summary of Table 1): at least 7500
